Experimental findings from US20160052955A1, “[…] INHIBITORS FOR TREATING CANCERS” (SLOAN-KETTERING INSTITUTE FOR CANCER RESEARCH, priority 2013, published 2016) are described below.

pIC50: −log10 of the molar value. Some results are limits rather than exact numbers.

Holding throughout (format): biochemical
The target in one test is T1, SMYD2 Full-length (Homo sapiens, UniProt Q9NRG4).
T1 construct: SMYD2 Full-length
The experiment in a line: Filter-paper methyltransferase assay, SMYD2. To be noted: substrate p53 (360-393 aa), 50 nM enzyme, 10 h; read-out: IC50 SMYD2-FL. The procedure: (§1) Methylation Reaction. The 20 μL methylation reaction was carried out at ambient temperature using two mixtures: A. 10 μl of enzyme mixture in the assay buffer containing 50 mM Hepes (pH=8.0), 0.005% Tween-20, 5 μg/ml BSA and 1 mM TCEP; B. 10 μl of a mixture of […], 0.15 μCi [^3H-Me]-SAM cofactor and 3 μM of the corresponding peptide substrate in the same assay buffer. After A and B were mixed for a designated time period, the reaction mixture was examined with our filter-paper assay.
Filter-paper Assay. This assay relies on Whatman P-81 filter paper, which binds peptides but not SAM. Protein Methyl Transferases (PMTs) transfer ^3H-Me of [^3H-Me]-SAM to peptide substrates and the resultant ^3H-methylated, filter-paper-bound peptide is quantified with a scintillation counter. Briefly, 6 μl of the methylation reaction was spotted onto Whatman P-81 phosphocellulose filter paper (1.2×1.2 cm^2) to immobilize the ^3H-labeled peptide. After drying in air for 20 min, the filter paper was immersed into 20 mL of 50 mM Na2CO3/NaHCO3 buffer (pH=9.2), and washed 5 times for 10 min each time. The washed filter paper was then transferred to a 20 ml scintillation vial containing 1 mL of distilled water and 10 mL of Ultima Gold scintillation cocktail or 7 mL scintillation vial containing 0.5 mL od distilled water and 5 mL of scintillation cocktail (PerkinElmer). The radioactivity was quantified by a Beckman LS6000IC liquid scintillation counter.
Dose-response Curves and IC50. Twice the PMT concentration was incubated for 10 min with varied concentration of inhibitors (0.1-400 μM stocks), into which 10 μl of the PMT peptide substrate and radioactive cofactor (3 μM of the corresponding peptide and 1.5 μM, 0.15 μCi [^3H-Me]-SAM) were added. After incubating the reaction mixture for the respective reaction time, the conversion was quantified with the filter paper assay as described above. The inhibition was expressed as the percentage between the high control (no inhibition) and the low control (no enzyme) as follows: Percentage Inhibition=[(high control−reading)/(high control−low control)]×100%. Each experiment was performed in triplicate. The IC50 values were obtained by fitting inhibition percentage versus inhibitor concentration using GraphPad Prism5 software.

The target in the next test is T2, CARM1 (19-608) (Homo sapiens, UniProt Q86X55).
T2 construct: CARM1 (19-608)
T2 sequence (Q86X55 19-608): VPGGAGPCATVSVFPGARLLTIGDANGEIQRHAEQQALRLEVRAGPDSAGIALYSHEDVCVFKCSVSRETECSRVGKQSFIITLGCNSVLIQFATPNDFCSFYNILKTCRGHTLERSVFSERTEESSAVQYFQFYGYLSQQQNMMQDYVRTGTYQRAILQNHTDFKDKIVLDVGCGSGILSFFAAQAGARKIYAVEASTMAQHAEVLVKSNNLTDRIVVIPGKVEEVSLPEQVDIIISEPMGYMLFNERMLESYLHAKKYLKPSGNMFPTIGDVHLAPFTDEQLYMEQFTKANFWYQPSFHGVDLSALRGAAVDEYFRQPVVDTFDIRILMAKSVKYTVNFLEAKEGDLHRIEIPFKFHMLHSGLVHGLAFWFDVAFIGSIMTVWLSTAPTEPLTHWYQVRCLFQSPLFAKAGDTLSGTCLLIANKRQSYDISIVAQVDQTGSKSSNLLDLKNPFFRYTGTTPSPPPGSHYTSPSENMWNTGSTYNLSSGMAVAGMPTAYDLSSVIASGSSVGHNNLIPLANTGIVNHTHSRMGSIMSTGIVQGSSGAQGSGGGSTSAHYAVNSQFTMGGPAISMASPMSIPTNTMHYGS
The experiment in a line: Filter-paper methyltransferase assay, CARM1.

Another test has as its target T3, SETD2 (1347-1711) (Homo sapiens, UniProt Q9BYW2).
T3 construct: SETD2 (1347-1711)
T3 sequence (Q9BYW2 1347-1711): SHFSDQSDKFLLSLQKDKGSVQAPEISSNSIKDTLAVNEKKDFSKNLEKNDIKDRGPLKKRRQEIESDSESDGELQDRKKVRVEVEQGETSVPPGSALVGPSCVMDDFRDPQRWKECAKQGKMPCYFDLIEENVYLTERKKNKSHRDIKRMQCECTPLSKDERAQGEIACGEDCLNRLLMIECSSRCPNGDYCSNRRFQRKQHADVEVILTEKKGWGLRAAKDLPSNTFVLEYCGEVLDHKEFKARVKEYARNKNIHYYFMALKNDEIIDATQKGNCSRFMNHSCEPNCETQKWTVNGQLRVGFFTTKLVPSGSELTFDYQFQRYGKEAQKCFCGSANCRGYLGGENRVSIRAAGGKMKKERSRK
Description: Filter-paper methyltransferase assay, SETD2. To be noted: substrate H3 (20-50 aa), 250 nM enzyme, 4 h.

For another test, the target named is T4, SET8 (191-352) (Homo sapiens, UniProt Q9NQR1).
T4 construct: SET8 (191-352)
T4 sequence (Q9NQR1 191-352 isoform Q9NQR1-2): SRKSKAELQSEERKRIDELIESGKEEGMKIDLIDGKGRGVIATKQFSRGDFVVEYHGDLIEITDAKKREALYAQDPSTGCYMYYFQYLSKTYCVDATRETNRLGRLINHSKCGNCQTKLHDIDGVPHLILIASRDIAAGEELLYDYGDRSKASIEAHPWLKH
Description: Filter-paper methyltransferase assay, SET8. The following applies: substrate H4 (10-30 aa), 1000 nM enzyme, 8 h.

For another test, the target named is T5, SMYD3 (Homo sapiens, UniProt Q9H7B4).
T5 sequence (Q9H7B4 1-428): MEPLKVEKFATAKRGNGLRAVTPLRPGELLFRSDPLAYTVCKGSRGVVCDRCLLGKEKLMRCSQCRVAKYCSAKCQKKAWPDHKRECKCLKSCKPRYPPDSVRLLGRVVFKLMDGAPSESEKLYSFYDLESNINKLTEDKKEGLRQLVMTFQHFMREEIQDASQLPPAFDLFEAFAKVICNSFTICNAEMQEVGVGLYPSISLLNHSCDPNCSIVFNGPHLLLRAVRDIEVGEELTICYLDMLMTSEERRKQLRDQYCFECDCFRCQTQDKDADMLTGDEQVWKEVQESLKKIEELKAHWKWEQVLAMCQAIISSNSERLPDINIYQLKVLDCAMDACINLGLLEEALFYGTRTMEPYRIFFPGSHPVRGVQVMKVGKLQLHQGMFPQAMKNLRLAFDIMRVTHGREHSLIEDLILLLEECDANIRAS
Description: Filter-paper methyltransferase assay, SMYD3. The following applies: substrate MAP3K2 (1-350 aa), 125 nM enzyme, 2 h. How it is done:
as §1
Filter-paper Assay. This assay relies on Whatman P-81 filter paper, which binds peptides but not SAM. Protein Methyl Transferases (PMTs) transfer ^3H-Me of [^3H-Me]-SAM to peptide substrates and the resultant ^3H-methylated, filter-paper-bound peptide is quantified with a scintillation counter. […] The radioactivity was quantified by a Beckman LS6000IC liquid scintillation counter.
Dose-response Curves and IC50. […] After incubating the reaction mixture for the respective reaction time, the conversion was quantified with the filter paper assay as described above. The inhibition was expressed as the percentage between the high control (no inhibition) and the low control (no enzyme) as follows: Percentage Inhibition=[(high control−reading)/(high control−low control)]×100%. […]

Another test concerns the target DOT1L (Homo sapiens, UniProt Q8TEK3). Description: Filter-paper methyltransferase assay, DOT1L.

Chain of DOT1L (Q8TEK3 whole entry): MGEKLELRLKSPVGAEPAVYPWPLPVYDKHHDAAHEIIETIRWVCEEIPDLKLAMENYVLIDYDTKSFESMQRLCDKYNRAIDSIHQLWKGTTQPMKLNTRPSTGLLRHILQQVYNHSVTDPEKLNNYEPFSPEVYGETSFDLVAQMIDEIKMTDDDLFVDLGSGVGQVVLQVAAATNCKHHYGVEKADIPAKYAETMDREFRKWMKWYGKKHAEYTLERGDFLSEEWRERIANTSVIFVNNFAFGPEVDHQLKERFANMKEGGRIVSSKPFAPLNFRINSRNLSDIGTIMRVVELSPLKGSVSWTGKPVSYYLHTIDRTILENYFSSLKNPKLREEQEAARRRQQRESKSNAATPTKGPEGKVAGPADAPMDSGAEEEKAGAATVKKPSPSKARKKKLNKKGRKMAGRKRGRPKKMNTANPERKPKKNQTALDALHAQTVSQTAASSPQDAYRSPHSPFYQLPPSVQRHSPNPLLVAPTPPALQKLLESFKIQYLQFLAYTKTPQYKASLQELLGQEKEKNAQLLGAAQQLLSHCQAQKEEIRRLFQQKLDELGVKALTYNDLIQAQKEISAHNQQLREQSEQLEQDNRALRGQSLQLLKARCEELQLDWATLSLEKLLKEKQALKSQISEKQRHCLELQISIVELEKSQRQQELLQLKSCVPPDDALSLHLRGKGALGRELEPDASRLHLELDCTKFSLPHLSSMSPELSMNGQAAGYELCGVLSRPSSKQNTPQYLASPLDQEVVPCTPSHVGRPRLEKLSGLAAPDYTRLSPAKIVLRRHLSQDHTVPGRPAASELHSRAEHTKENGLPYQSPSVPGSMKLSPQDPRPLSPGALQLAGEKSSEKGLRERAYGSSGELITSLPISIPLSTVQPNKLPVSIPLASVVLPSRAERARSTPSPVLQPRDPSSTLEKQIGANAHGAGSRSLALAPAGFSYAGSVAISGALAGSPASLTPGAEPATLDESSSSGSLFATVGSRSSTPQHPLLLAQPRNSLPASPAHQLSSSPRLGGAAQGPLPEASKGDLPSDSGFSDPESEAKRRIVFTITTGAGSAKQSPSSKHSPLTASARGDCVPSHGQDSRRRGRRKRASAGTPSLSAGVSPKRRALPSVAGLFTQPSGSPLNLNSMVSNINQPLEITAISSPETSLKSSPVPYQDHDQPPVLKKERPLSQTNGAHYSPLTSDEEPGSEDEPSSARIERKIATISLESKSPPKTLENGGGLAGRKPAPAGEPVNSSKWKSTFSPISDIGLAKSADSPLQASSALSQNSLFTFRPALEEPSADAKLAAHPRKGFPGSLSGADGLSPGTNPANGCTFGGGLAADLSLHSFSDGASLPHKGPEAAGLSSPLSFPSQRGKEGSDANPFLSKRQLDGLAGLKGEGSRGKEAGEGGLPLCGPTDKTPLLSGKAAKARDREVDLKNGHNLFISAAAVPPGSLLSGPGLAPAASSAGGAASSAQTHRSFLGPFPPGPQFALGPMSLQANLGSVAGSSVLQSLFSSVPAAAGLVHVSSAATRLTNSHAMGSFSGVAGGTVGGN
T1 sequence (Q9NRG4 whole entry): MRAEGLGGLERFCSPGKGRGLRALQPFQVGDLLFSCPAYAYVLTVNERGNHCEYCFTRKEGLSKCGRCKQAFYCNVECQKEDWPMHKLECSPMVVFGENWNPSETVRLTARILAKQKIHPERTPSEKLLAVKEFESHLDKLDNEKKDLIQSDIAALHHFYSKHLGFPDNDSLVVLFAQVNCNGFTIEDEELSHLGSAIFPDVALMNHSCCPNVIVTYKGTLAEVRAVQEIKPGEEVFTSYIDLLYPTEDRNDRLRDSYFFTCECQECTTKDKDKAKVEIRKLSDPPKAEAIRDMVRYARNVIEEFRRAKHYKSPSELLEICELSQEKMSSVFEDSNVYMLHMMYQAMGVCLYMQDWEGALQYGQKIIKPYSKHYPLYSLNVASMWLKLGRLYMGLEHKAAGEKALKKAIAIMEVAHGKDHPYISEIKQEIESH

As usually defined, the pIC50 is the IC50 on a negative log10 scale, so that one unit is a factor of ten. For `CC(C)(C)c1ccc(NC(=O)NCCC[C@H](CNCc2ccccc2)C[C@H]2O[C@@H](n3cnc4c(N)ncnc43)[C@@H](O)C2O)cc1` (some centres unmarked) [Example 29], the negative-log IC50 (pIC50) at SMYD2 Full-length was below 4.00; on CARM1 (19-608) (substrate H3 (1-40 aa), 300 nM enzyme, 7 h, read-out: IC50 CARM1), above 6.70; against SETD2 (1347-1711) it was below 4.00; on SET8 (191-352) it was below 4.00; against SMYD3, below 4.00; against DOT1L (substrate nucleosomes, 50 nM enzyme, 6 h), 6.77. The “inhibitory activity to CARM1 (in words)” value on CARM1 (19-608) is “remarkable inhibitory activity”. Besides, the “inhibitory activity to DOT1L (in words)” value against DOT1L was “remarkable inhibitory activity”.
